Source: patent publication US6984394B2, “Plastically deformable implant” (Bausch & Lomb Incorporated, priority 1999, dated 2006)

What was measured:
[1] = Surface tension of surface-active agent; format: physicochemical; details: in aqueous solution
Description: According to the present invention, the term fluorine-containing gel is defined as a gel-like preparation which comprises a minimum of one fluorocarbon. In especially useful embodiments of the present invention, the fluorine-containing gel comprises essentially three components, i.e., a fluorocarbon, a fluorine-containing surface-active agent, and water. It is possible for different additives to be added to the fluorocarbon-containing and aqueous components. Certain compositions of surface-active agents, fluorocarbons, and water form gels which are able to completely recover their gel structure after they have been liquefied, for example, by exposure to mechanical pressure or heat. This property of the gels according to the present invention makes it possible for them to be used as a generic implant over a long period of time. If the implant material of such an implant that has been inserted into a bodily orifice were to liquefy, for example, as a result of short-term pressure, the gel structure, due to the reversibility described, would be able to recover when in a state of rest. Thus, the implant according to the present invention has a self-regulating restorative mechanism. This self-regulating restorative mechanism of a polyaphron gel is attributable to the stability of the aphrons that form the gel. After liquefaction, a gel can restore its structure only if its “building blocks,” the aphrons, were not completely destroyed. If a sufficient number of intact aphrons remain after liquefaction, a recovery is possible, and what comes as a surprise is the fact that the aphron structure is transferred to the homogenized regions of the surrounding liquid and that the gel structure is restored in the entire liquid. The stability of the aphrons depends on the intensity of the interaction between water, surface-active agent, and perfluorocarbon, which in turn is determined by the surface properties and the ability of the individual phases to spread on each other's surface. In addition, an important aspect is the intensity of the interactions of the molecules within the films that envelop the aphrons (water/surface-active agent; perfluorocarbon/surface-active agent). Thus, the self-regulating restorative mechanism is activated only if the surface properties of the surface-active agent/water and/or surface-active agent/perfluorocarbon film, on the one hand, and of the internal aphron phase, on the other hand, are properly coordinated, i.e., if the strength of the surface-active agent stabilizes the aphron structure. This can be implemented through the use of fluorine-containing surface-active agents of the general formula RF—Rpol, where RF stands for the linear or branched perfluoroalkyl groups with more than 5 carbon atoms and Rpol stands for a polar hydrocarbon residue which comprises a minimum of one functional group which is selected from CO—NH(R), CO—N(R)2, COO—, COOR, SO3; SO2N(R)2, CH2—O—R, PO2H, PO3H. The molecular weight is preferably >400 g/mol, the surface tension in aqueous solution is <30 mN/m and preferably <20 mN/m. The interfacial tension in aqueous solution with respect to the nonpolar component is <25 mN/m, preferably <10 mN/m, and the concentration is <3%, preferably <0.1%. With nonfluorinated surface-active agents, this can be achieved by means of a strong cohesive effect with an HLB value greater than 25 (HLB=hydrophilic lipophilic balance according to Griffin in J. Soc. Cosmet. Chem. 1 (1949), p. 311).

[2] = Interfacial tension with respect to the nonpolar component; format: physicochemical; details: surface-active agent, in aqueous solution
Description: According to the present invention, the term fluorine-containing gel is defined as a gel-like preparation which comprises a minimum of one fluorocarbon. In especially useful embodiments of the present invention, the fluorine-containing gel comprises essentially three components, i.e., a fluorocarbon, a fluorine-containing surface-active agent, and water. It is possible for different additives to be added to the fluorocarbon-containing and aqueous components. Certain compositions of surface-active agents, fluorocarbons, and water form gels which are able to completely recover their gel structure after they have been liquefied, for example, by exposure to mechanical pressure or heat. This property of the gels according to the present invention makes it possible for them to be used as a generic implant over a long period of time. If the implant material of such an implant that has been inserted into a bodily orifice were to liquefy, for example, as a result of short-term pressure, the gel structure, due to the reversibility described, would be able to recover when in a state of rest. Thus, the implant according to the present invention has a self-regulating restorative mechanism. This self-regulating restorative mechanism of a polyaphron gel is attributable to the stability of the aphrons that form the gel. After liquefaction, a gel can restore its structure only if its “building blocks,” the aphrons, were not completely destroyed. If a sufficient number of intact aphrons remain after liquefaction, a recovery is possible, and what comes as a surprise is the fact that the aphron structure is transferred to the homogenized regions of the surrounding liquid and that the gel structure is restored in the entire liquid. The stability of the aphrons depends on the intensity of the interaction between water, surface-active agent, and perfluorocarbon, which in turn is determined by the surface properties and the ability of the individual phases to spread on each other's surface. […]

Compound | σO = surface tension [1] | σG = interfacial tension with respect to the nonpolar component [2]
C[N+](C)(C)C.O=C([O-])C(F)(F)C(F)(F)C(F)(F)C(F)(F)C(F)(F)C(F)(F)C(F)(F)F [E 749, Tetramethyl ammonium salt of perfluorooctanoic acid] | σO < 20 mNm | –
CC[N+](CC)(CC)CC.O=S(=O)([O-])C(F)(F)C(F)(F)C(F)(F)C(F)(F)C(F)(F)C(F)(F)C(F)(F)C(F)(F)F [Example B248, Tetraethyl animonium salt of perfluorooctanesulfonic acid] | σO < 20 mNm | –
CN(C[C@H](O)[C@@H](O)[C@H](O)[C@H](O)CO)C(=O)C(F)(F)C(F)(F)C(F)(F)C(F)(F)C(F)(F)C(F)(F)C(F)(F)F [Example T14, Perfluorooctanoic acid N-methyl-D-glucamide] | σO < 20 mNm | –
O=C(N(CCO)CC(O)C(O)C(O)C(O)CO)C(F)(F)C(F)(F)C(F)(F)C(F)(F)C(F)(F)C(F)(F)C(F)(F)F [Example T16, Perfluorooctanoic acid N-(2-hydroxyethyl)-D-glucamide] | σO < 20 mNm | –
O=C(N(CCO)C[C@H](O)[C@@H](O)[C@H](O)[C@H](O)CO)C(F)(F)C(F)(F)C(F)(F)C(F)(F)C(F)(F)C(F)(F)C(F)(F)C(F)(F)C(F)(F)F [Example T21, Perfluorodecanoic acid N-(2-hydroxyethyl)-D-glucamide] | σO < 20 mNm | –
O=C(N(CCO)CCO)C(F)(F)C(F)(F)C(F)(F)C(F)(F)C(F)(F)C(F)(F)C(F)(F)F [HO31, Perfluorooctanoic acid diethanolamide] | σO < 20 mNm | –
Fluorinated amine oxide [Fluowet OX] | 22 mNm | 12 mNm
Perfluoroalkyl ethanol oxethylate [Fluowet OTL] | 19 mNm | 10 mNm
Perfluoroalkyl ethanol oxethylate [Fluowet OTN] | 18 mNm | 19 mNm
Perfluorooctanoic acid tetraethyl piperazinium salt [HO224] | σO = 16 mNm | –
